Tests used:
patients with T2DM [1] = experiment: Example 1 study: fasting pharmacodynamic markers (glucose, insulin, C-peptide, glucagon, lipids, HOMA indices); assay type: in vivo, human; conditions: for mean HOMA-B index: baseline 9.108
Protocol: Fasting plasma samples for glucose and insulin are explored as secondary PD markers. Exploratory PD may include, but are not limited to plasma glucagon, C-peptide, native OXM, lipid panel (triglycerides, total cholesterol, low-density lipoprotein cholesterol, and high-density lipoprotein cholesterol), beta cell function, and homeostatic model assessment (HOMA) indices.
Plasma concentrations of at least glucose, glucagon, insulin, C-peptide and native OXM, are assayed using validated analytical methods.
In respect of Cohort 1, PD sampling occurs at baseline and Days 1, 3 (48 hours post administration of Compound 1), 8, 22, 29, 50, 57, 78 and 80. […]

patients with T2DM [2] = experiment: Example 1 study: gastric emptying (acetaminophen PK); assay type: in vivo, human
Excerpt: Acetaminophen is a well-established marker for the rate and extent of gastric emptying. It is rapidly absorbed from the duodenum upon release from the stomach. A delay in gastric emptying is reflected in the alterations to the concentration-time profile of acetaminophen, specifically, decreasing its Cmax and increasing time of maximum observed drug concentration (tmax) without altering the extent (total drug amount) absorbed. An oral solution dose of approximately 1 g acetaminophen is considered to be sufficient for bioanalytical detection and is administered as indicated below in respect of Cohorts 1 and 2. […] Concentrations of acetaminophen are assayed using a validated LC/MS method. Bioanalytical samples collected to measure acetaminophen concentrations are retained for a maximum of 2 years following last patient visit for the study.
In respect of Cohort 1, gastric emptying is assessed at baseline and Days 2 and 79.
In respect of Cohort 2, gastric emptying is assessed at baseline and Days 2 and 107.
The PK parameters of acetaminophen were compared between treatment groups to determine the rate and extent of gastric emptying. Prior to dosing with Compound 1, the PK profiles of acetaminophen on Day −1 were similar between the treatment groups. Within treatment groups, the Cmax of acetaminophen decreased from Day −1 during 12 weeks of multiple dosing with Compound 1. The Cmax of acetaminophen was lowest on Day 2 in both treatment groups. However, the change from baseline Cmax of acetaminophen increased at Day 107.

[3] = Cohort 1, escalated to 4.5 mg, Day 78 and Day 80
[4] = Cohort 1, escalated to 4.5 mg, Day 80
[5] = Cohort 2, escalated to 6.0 mg, Day 64
[6] = Cohort 2, escalated to 8.0 mg, Day 85
[7] = Cohort 2, escalated to 10.0 mg, Day 106 and Day 108
[8] = Cohort 2, escalated to 10.0 mg, Day 108

## CC(C)C[C@H](NC(=O)[C@H](CC(C)C)NC(=O)[C@H](Cc1c[nH]c2ccccc12)NC(=O)[C@H](CCC(=O)O)NC(=O)[C@@H](NC(=O)[C@H](Cc1ccccc1)NC(=O)[C@H](CCC(=O)O)NC(=O)[C@H](CCCCNC(=O)COCCOCCNC(=O)COCCOCCNC(=O)CC[C@H](NC(=O)CCCCCCCCCCCCCCCCCCC(=O)O)C(=O)O)NC(=O)[C@H](C)NC(=O)[C@H](CCCCN)NC(=O)[C@H](CCCCN)NC(=O)[C@H](CCC(=O)O)NC(=O)[C@H](CC(=O)O)NC(=O)[C@H](CC(C)C)NC(=O)[C@H](Cc1ccc(O)cc1)NC(=O)[C@H](CCCCN)NC(=O)[C@H](CO)NC(=O)[C@H](Cc1ccc(O)cc1)NC(=O)[C@H](CC(=O)O)NC(=O)[C@H](CO)NC(=O)[C@@H](NC(=O)[C@H](Cc1ccccc1)NC(=O)[C@@H](NC(=O)CNC(=O)[C@H](CCC(N)=O)NC(=O)C(C)(C)NC(=O)[C@@H](N)Cc1c[nH]cn1)[C@@H](C)O)[C@@H](C)O)C(C)C)C(=O)N[C@@H](CCC(=O)O)C(=O)NCC(=O)NCC(=O)N1CCC[C@H]1C(=O)N[C@@H](CO)C(=O)N[C@@H](CO)C(=O)NCC(N)=O [Compound 1]
Patients with T2DM [1]; Cohort 1, escalated to 4.5 mg, Day 78, baseline 14.79 pmol/L
  mean fasting glucagon: 6.65 pmol/L
Patients with T2DM [1]; Cohort 1, escalated to 4.5 mg, Day 78, baseline 667 pmol/L
  mean fasting C-peptide: 820 pmol/L
Patients with T2DM [1]; Cohort 1, escalated to 4.5 mg, Day 78, baseline 2.938
  mean fasting triglyceride: 1.456 mmol/L
Patients with T2DM [1]; Cohort 1, escalated to 4.5 mg, Day 78, baseline 4.704
  mean HOMA-IR index: 4.289
Patients with T2DM [1]; Cohort 1, escalated to 4.5 mg, Day 78, baseline 5.065
  mean fasting total cholesterol: 4.275 mmol/L
Patients with T2DM [1]; Cohort 1, escalated to 4.5 mg, Day 78, baseline 9.648
  mean fasting insulin: 13.362 mIU/L
Patients with T2DM [1]; [3]
  approximate decrease of HOMA-IR from baseline: ~9%
  approximate decrease of fasting LDL cholesterol from baseline: ~10%
  approximate decrease of fasting glucagon from baseline: 45-55%
  approximate decrease of fasting total cholesterol from baseline: 12-16%
  approximate decrease of fasting triglyceride from baseline: 29-50%
  approximate increase of fasting C-peptide from baseline: 22-31%
  approximate increase of fasting insulin from baseline: 38-46%
Patients with T2DM [1]; Cohort 1, escalated to 4.5 mg, Day 78 and Day 80, baseline 2.852
  mean fasting LDL cholesterol: 2.56 mmol/L
Patients with T2DM [1]; [4]
  approximate increase of HOMA-B from baseline: ~145%
  approximate reduction of mean fasting glucose from baseline: ~40%
Patients with T2DM [1]; Cohort 1, escalated to 4.5 mg, Day 80, baseline 14.79 pmol/L
  mean fasting glucagon: 8.19 pmol/L
Patients with T2DM [1]; Cohort 1, escalated to 4.5 mg, Day 80, baseline 667 pmol/L
  mean fasting C-peptide: 875 pmol/L
Patients with T2DM [1]; Cohort 1, escalated to 4.5 mg, Day 80, baseline 2.938
  mean fasting triglyceride: 2.084 mmol/L
Patients with T2DM [1]; Cohort 1, escalated to 4.5 mg, Day 80, baseline 5.065
  mean fasting total cholesterol: 4.461 mmol/L
Patients with T2DM [1]; Cohort 1, escalated to 4.5 mg, Day 80, baseline 9.648
  mean fasting insulin: 14.046 mIU/L
Patients with T2DM [1]; Cohort 1, escalated to 4.5 mg, Day 80, baseline 10.78
  mean fasting glucose: 6.52 mmol/L
Patients with T2DM [1]; Cohort 2, escalated to 6.0 mg
  approximate decrease of fasting glucagon from baseline: ~63%
  approximate increase of fasting C-peptide from baseline: ~12%
  approximate increase of fasting insulin from baseline: ~14%
Patients with T2DM [1]; [5]
  approximate decrease of HOMA-IR from baseline: ~20%
  approximate decrease of fasting LDL cholesterol from baseline: ~29%
  approximate decrease of fasting total cholesterol from baseline: ~26%
  approximate decrease of fasting triglyceride from baseline: ~43%
  approximate increase of HOMA-B from baseline: ~76%
  mean HOMA-B index: 16.072
Patients with T2DM [1]; Cohort 2, escalated to 6.0 mg, Day 64, baseline 1.867
  mean fasting triglyceride: 1.055 mmol/L
Patients with T2DM [1]; Cohort 2, escalated to 6.0 mg, Day 64, baseline 2.7
  mean HOMA-IR index: 2.158
Patients with T2DM [1]; Cohort 2, escalated to 6.0 mg, Day 64, baseline 2.796
  mean fasting LDL cholesterol: 1.997 mmol/L
Patients with T2DM [1]; Cohort 2, escalated to 6.0 mg, Day 64, baseline 4.971
  mean fasting total cholesterol: 3.673 mmol/L
Patients with T2DM [1]; Cohort 2, escalated to 6.0 mg, baseline 5.892
  mean fasting insulin: 6.73 mIU/L
Patients with T2DM [1]; Cohort 2, escalated to 6.0 mg, baseline 9.83
  mean fasting glucagon: 3.65 pmol/L
Patients with T2DM [1]; Cohort 2, escalated to 6.0 mg, baseline 532.8
  mean fasting C-peptide: 597 pmol/L
Patients with T2DM [1]; Cohort 2, escalated to 8.0 mg
  approximate increase of fasting C-peptide from baseline: approximately 2%
  approximate increase of fasting insulin from baseline: ~12%
Patients with T2DM [1]; Cohort 2, escalated to 8.0 mg, Day 80 (so in the source), baseline 9.83
  mean fasting glucagon: 2 pmol/L
Patients with T2DM [1]; [6]
  approximate decrease of HOMA-IR from baseline: approximately 27%
  approximate decrease of fasting LDL cholesterol from baseline: approximately 30%
  approximate decrease of fasting total cholesterol from baseline: approximately 27%
  approximate decrease of fasting triglyceride from baseline: approximately 54%
  approximate increase of HOMA-B from baseline: approximately 83%
  mean HOMA-B index: 16.689
Patients with T2DM [1]; Cohort 2, escalated to 8.0 mg, Day 85, baseline 1.867
  mean fasting triglyceride: 0.855 mmol/L
Patients with T2DM [1]; Cohort 2, escalated to 8.0 mg, Day 85, baseline 2.7
  mean HOMA-IR index: 1.976
Patients with T2DM [1]; Cohort 2, escalated to 8.0 mg, Day 85, baseline 2.796
  mean fasting LDL cholesterol: 1.954 mmol/L
Patients with T2DM [1]; Cohort 2, escalated to 8.0 mg, Day 85, baseline 4.971
  mean fasting total cholesterol: 3.614 mmol/L
Patients with T2DM [1]; Cohort 2, escalated to 8.0 mg, baseline 5.892
  mean fasting insulin: 6.589 mIU/L
Patients with T2DM [1]; Cohort 2, escalated to 8.0 mg, baseline 532.8
  mean fasting C-peptide: 542 pmol/L
Patients with T2DM [1]; Cohort 2, escalated to 10.0 mg
  approximate decrease of fasting C-peptide from baseline: ~18%
  approximate decrease of fasting insulin from baseline: ~20%
  approximate decrease of fasting total cholesterol from baseline: ~31%
Patients with T2DM [1]; Cohort 2, escalated to 10.0 mg, Day 106, baseline 1.867
  mean fasting triglyceride: 0.86 mmol/L
Patients with T2DM [1]; Cohort 2, escalated to 10.0 mg, Day 106, baseline 2.796
  mean fasting LDL cholesterol: 1.859 mmol/L
Patients with T2DM [1]; Cohort 2, escalated to 10.0 mg, Day 106, baseline 4.971
  mean fasting total cholesterol: 3.454 mmol/L
Patients with T2DM [1]; Cohort 2, escalated to 10.0 mg, Day 106, baseline 5.892
  mean fasting insulin: 5.355 mIU/L
Patients with T2DM [1]; Cohort 2, escalated to 10.0 mg, Day 106, baseline 9.83
  mean fasting glucagon: 1.98 pmol/L
Patients with T2DM [1]; Cohort 2, escalated to 10.0 mg, Day 106, baseline 532.8
  mean fasting C-peptide: 511 pmol/L
Patients with T2DM [1]; [7]
  approximate decrease of fasting LDL cholesterol from baseline: 33-34%
  approximate decrease of fasting triglyceride from baseline: 47-54%
Patients with T2DM [1]; [8]
  approximate decrease of HOMA-IR from baseline: ~51%
  approximate increase of HOMA-B from baseline: ~33%
  approximate reduction of mean fasting glucose from baseline: ~43%
Patients with T2DM [1]; Cohort 2, escalated to 10.0 mg, Day 108, baseline 1.867
  mean fasting triglyceride: 0.985 mmol/L
Patients with T2DM [1]; Cohort 2, escalated to 10.0 mg, Day 108, baseline 2.796
  mean fasting LDL cholesterol: 1.849 mmol/L
Patients with T2DM [1]; Cohort 2, escalated to 10.0 mg, Day 108, baseline 4.971
  mean fasting total cholesterol: 3.441 mmol/L
Patients with T2DM [1]; Cohort 2, escalated to 10.0 mg, Day 108, baseline 5.892
  mean fasting insulin: 4.74 mIU/L
Patients with T2DM [1]; Cohort 2, escalated to 10.0 mg, Day 108, baseline 9.83
  mean fasting glucagon: 1.93 pmol/L
Patients with T2DM [1]; Cohort 2, escalated to 10.0 mg, Day 108, baseline 10.46
  mean fasting glucose: 5.91 mmol/L
Patients with T2DM [1]; Cohort 2, escalated to 10.0 mg, Day 108, baseline 532.8
  mean fasting C-peptide: 435 pmol/L
Patients with T2DM [1]; Cohort 2, over the dosing period (FIG. 7c)
  mean fasting HDL levels: decreased from baseline
Patients with T2DM [1]; dose 8.0 mg or higher
  reduction of fasting LDL cholesterol: ≥ 30%
Patients with T2DM [1]; dose 10 mg or greater
  reduction of fasting insulin resistance indices: 50%
Patients with T2DM [1]; dose greater than 6.0 mg
  reduction of fasting insulin resistance indices: greater than 25%
  reduction of fasting plasma glucagon: approximately 80%
  reduction of fasting triglyceride: ≥ 50%
Patients with T2DM [1]; dose greater than 8.0 mg
  reduction of fasting total cholesterol: more than 30%
Patients with T2DM [2]; Cohort 1, Day 2
  acetaminophen Cmax, Change From Baseline (Est % change): (0.83) %
  acetaminophen tmax, Change From Baseline (Est % change): (1.06) %
Patients with T2DM [2]; Cohort 1, Day 2, Day −1 2.671
  acetaminophen tmax: 1.963 h
Patients with T2DM [2]; Cohort 1, Day 79
  acetaminophen Cmax, Change From Baseline (Est % change): (0.9) %
  acetaminophen tmax: 1.478 h
  acetaminophen tmax, Change From Baseline (Est % change): (0.8) %
Patients with T2DM [2]; Cohort 2, Day 2
  acetaminophen Cmax, Change From Baseline (Est % change): (0.79) %
  acetaminophen tmax, Change From Baseline (Est % change): (0.89) %
  acetaminophen tmax, Change From Baseline, Mean: 0.187 h
Patients with T2DM [2]; Cohort 2, Day 2, Day −1 1.214
  acetaminophen tmax: 1.423 h
Patients with T2DM [2]; Cohort 2, Day 107
  acetaminophen Cmax, Change From Baseline (Est % change): (1.18) %
  acetaminophen tmax: 0.909 h
  acetaminophen tmax, Change From Baseline (Est % change): (0.89) %
  acetaminophen tmax, Change From Baseline, Mean: 0.75 h
